Reference: ChEMBL document CHEMBL1131144, “N-Substituted 9beta-methyl-5-(3-hydroxyphenyl)morphans are opioid receptor pure antagonists” (J Med Chem, 1998)
pKi: −log10 of the molar value.

Columns and labels:
[1] = molecular target: Delta-type opioid receptor (Rattus norvegicus, UniProt P33533); experiment: Binding activity against Opioid receptor delta 1 using [3H]DADLE as radioligand in rat brain membranes.; format: cell membranes
Mu-type opioid receptor [2] = molecular target: Mu-type opioid receptor (Cavia porcellus, UniProt P97266); experiment: Inhibition of [35S]GTP-gamma-S, binding in guinea pig caudate stimulated by DAMGO (Opioid receptor mu 1); format: functional
[3] = molecular target: T1, Kappa-type opioid receptor (Cavia porcellus, UniProt P41144); experiment: Inhibition of [35S]GTP-gamma-S, binding in guinea pig caudate stimulated by U69,593 in Opioid receptor kappa 1; format: functional
[4] = molecular target: T1, Kappa-type opioid receptor; experiment: Binding activity against Opioid receptor kappa 1 using [3H]U-69593 as radioligand in guinea pig membranes.; format: cell membranes
Mu-type opioid receptor [5] = molecular target: Mu-type opioid receptor (Rattus norvegicus, UniProt P33535); experiment: Binding activity against Opioid receptor mu 1 using [3H]DAMGO as radioligand in rat brain membranes.; format: cell membranes
[6] = molecular target: Kappa-type opioid receptor (Homo sapiens, UniProt P41145); experiment: Binding affinity against Opioid receptor kappa 1 using [3H]ethylketocyclazocine as radioligand.
Mu-type opioid receptor [7] = molecular target: Mu-type opioid receptor (Homo sapiens, UniProt P35372); experiment: Binding affinity against Opioid receptor mu 1 using [3H]naloxone as radioligand.
[8] = molecular target: T1, Kappa-type opioid receptor; experiment: Binding activity against kOpioid receptor kappa 1 using [3H]U-69593 as radioligand in guinea pig membranes.; format: cell membranes

T1 sequence (P41144 whole entry): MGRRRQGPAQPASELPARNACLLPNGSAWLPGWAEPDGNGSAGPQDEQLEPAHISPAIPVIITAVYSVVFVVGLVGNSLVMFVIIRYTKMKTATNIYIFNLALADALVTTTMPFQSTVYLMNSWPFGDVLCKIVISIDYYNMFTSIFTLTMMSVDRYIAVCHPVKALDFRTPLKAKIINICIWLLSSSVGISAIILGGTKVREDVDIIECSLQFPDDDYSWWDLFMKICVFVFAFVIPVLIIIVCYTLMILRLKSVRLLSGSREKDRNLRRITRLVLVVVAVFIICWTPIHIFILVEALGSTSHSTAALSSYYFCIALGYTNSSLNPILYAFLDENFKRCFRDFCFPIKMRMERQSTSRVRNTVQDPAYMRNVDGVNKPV
Delta-type opioid receptor, sequence (P33533 whole entry): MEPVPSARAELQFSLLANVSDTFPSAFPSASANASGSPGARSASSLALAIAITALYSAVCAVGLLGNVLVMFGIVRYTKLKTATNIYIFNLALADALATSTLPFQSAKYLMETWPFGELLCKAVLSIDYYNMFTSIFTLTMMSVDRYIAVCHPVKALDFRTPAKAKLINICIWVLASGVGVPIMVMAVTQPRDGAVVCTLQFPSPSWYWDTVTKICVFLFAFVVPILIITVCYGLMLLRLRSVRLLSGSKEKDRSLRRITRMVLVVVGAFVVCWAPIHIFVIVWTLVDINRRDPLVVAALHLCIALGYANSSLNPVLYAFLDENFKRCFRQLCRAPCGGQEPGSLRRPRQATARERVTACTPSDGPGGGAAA
Mu-type opioid receptor (Cavia porcellus, UniProt P97266), sequence (P97266 whole entry): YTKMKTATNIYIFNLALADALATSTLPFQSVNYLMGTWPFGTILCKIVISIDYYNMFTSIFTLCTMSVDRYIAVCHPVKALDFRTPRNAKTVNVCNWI
Mu-type opioid receptor (Rattus norvegicus, UniProt P33535), sequence (P33535 whole entry): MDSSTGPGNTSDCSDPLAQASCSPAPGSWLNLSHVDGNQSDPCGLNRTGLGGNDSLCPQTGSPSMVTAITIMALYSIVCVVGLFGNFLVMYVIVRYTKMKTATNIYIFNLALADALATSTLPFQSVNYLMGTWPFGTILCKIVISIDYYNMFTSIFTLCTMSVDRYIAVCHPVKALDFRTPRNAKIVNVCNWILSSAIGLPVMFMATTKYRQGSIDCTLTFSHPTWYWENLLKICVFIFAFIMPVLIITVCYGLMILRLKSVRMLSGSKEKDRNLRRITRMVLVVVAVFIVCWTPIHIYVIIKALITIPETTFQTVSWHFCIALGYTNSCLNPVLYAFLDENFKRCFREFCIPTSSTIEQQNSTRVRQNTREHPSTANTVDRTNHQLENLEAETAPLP
Mu-type opioid receptor (Homo sapiens, UniProt P35372), sequence (P35372 whole entry): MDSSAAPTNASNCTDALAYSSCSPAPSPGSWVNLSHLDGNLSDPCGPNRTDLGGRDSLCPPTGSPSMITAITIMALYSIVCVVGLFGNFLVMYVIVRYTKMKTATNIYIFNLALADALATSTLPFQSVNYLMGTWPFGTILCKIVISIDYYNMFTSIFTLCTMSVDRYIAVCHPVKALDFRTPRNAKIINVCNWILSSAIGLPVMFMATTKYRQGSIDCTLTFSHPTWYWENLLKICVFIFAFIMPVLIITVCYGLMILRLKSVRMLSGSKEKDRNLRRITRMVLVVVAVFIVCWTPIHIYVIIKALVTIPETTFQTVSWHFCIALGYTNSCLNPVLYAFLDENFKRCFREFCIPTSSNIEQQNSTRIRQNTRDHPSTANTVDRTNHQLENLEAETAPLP
Kappa-type opioid receptor (Homo sapiens, UniProt P41145), sequence (P41145 whole entry): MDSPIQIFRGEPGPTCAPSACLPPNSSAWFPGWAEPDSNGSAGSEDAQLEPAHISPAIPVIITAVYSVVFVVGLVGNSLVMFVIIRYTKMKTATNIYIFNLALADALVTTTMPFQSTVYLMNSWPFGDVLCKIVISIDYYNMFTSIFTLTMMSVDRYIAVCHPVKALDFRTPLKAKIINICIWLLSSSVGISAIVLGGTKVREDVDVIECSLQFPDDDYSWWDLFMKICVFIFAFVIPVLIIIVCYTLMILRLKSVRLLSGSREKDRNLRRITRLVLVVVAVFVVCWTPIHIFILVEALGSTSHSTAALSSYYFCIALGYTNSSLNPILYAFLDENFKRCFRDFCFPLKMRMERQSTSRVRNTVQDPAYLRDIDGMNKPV

Row | Structure (SMILES) | pKi [1] | pKi (Mu-type opioid receptor [2]) | pKi [3] | pKi [4] | pKi (Mu-type opioid receptor [5]) | pKi [6] | pKi (Mu-type opioid receptor [7]) | pKi [8]
1 | C[C@H]1C2CCCC1(c1cccc(O)c1)CCN2C (some centres not stated) | < 5.00 | 7.67 | 6.98 | 6.09 | 6.78 | – | – | –
2 | C[C@H]1CN(C)CC[C@@]1(C)c1cccc(O)c1 | – | – | – | – | – | 6.08 | 7.10 | –
3 | C[C@H]1C2CCCC1(c1cccc(O)c1)CCN2CCc1ccccc1 (some centres not stated) | 6.57 | 9.47 | 8.87 | – | 8.51 | – | – | 7.84
